This is an account of results in US20150252048A1, “SUBSTITUTED N-(3-PYRIMIDIN-4-YL)PHENYL)ACRYLAMIDE ANALOGS AS TYROSINE RECEPTOR KINASE BTK INHIBITORS” (UNIVERSITY OF UTAH RESEARCH FOUNDATION, priority 2012, published 2015).

The target in series [1] is T1, recombinant full-length human BTK kinase (Homo sapiens, UniProt Q06187).
T1 construct: recombinant full-length human BTK kinase with a (His)6 tag; (His)6; purchased Invitrogen Corporation, Carlsbad, Calif
As to the kind of experiment: BTK kinase assay: ADP generation assay (ADP-Glo). Format: biochemical. The conditions noted are these: 60 nM BTK, MBP substrate, 60 min. How it is done: The primary assay for compound inhibitory activity was the ADP generation assay described herein. Test compounds were diluted to desired concentrations in kinase reaction buffer and briefly incubated with recombinant full-length human BTK kinase with a (His)6 tag (81.3 kDa; Invitrogen Corporation, Carlsbad, Calif.). The assay as described is based on volumes used in a standard 384 well format using solid, white-wall plates. The reaction was subsequently initiated by the addition of ATP and myelin basic protein (MBP) substrate (Millipore Corporation, Waltham, Mass.). Composition of the assay reaction mixture ([…]) was: 5% v/v DMSO, 60 nM BTK, 1.6 µM ATP, and 20 µM MBP substrate. After incubation at room temperature for 60 min, […] (Promega Corporation, Madison, Wis.) was added to each well and incubated for an additional 40 minutes. The reagent stopped the kinase reaction and depleted the unconsumed ATP. Kinase Detection reagent ([…]; Promega Corporation) was then added to each well. The Kinase Detection reagent comprises reagents to convert ADP to ATP and provide luciferase and luciferin to detect ATP. Luminescence was measured on an EnVision microplate reader (PerkinElmer). The amount of luminescence from each reaction is directly correlated with BTK kinase activity. Percent inhibition and IC50 values were calculated by comparing enzyme activity in drug-treated wells to the appropriate controls.
(§1) IC50 values are determined using GraphPad Prism 5 software. The data were entered as an X-Y plot into the software as percent inhibition for each concentration of the drug. The concentration values of the drug were log transformed and the nonlinear regression was carried out using the “sigmoidal dose-response (variable slope)” option within the GraphPad software to model the data and calculate IC50 values. The IC50 values reported are the concentration of drug at which 50% inhibition was reached.
(§2) Activity (IC50) was determined in the BTK assays describe herein below, i.e. either the ADP generation assay and/or the time-resolved FRET assay, and the data are shown in Table III. The compound number corresponds to the compound numbers used in Table I. In the table below, “ADP Assay” refers to the assay which measures production of ADP resulting from use of ATP by the kinase; and “HTRF Assay” refers to the time resolved-FRET kinase assay described in the examples. Multiple values in a given column indicate the results of more than one assay for the given compound. Representative data of the type used to determine the IC50 values for the ADP assay in Table III are shown in FIG. 8 for compounds 3, 4, and 5.
On the technique in general: In ADP-Glo the light output rises with the ADP produced.

The next series addresses BTK (Homo sapiens, UniProt Q06187). The series is described as follows: BTK kinase assay: time resolved-FRET (HTRF) assay. Format: biochemical. Set-up: recombinant full-length human BTK kinase with a (His)6 tag; (His)6; purchased Invitrogen Corporation, Carlsbad, Calif. Conditions: 10 nM BTK, 60 μM ATP, 1 μM substrate. How it is done:
Activity of compounds was routinely confirmed using a secondary assay as described herein. The secondary assay was a time resolved-FRET kinase assay. Test compound are diluted to desired concentrations in kinase reaction buffer and briefly incubated with BTK kinase (as described above; Invitrogen). The reaction is initiated by the addition of ATP and enzyme substrate, HTRF® KinEASE™-TK Substrate-biotin (Cisbio US, Bedford, Mass.). The composition of the reaction (10 μl) was: 1% v/v DMSO, 10 nM BTK, 60 μM ATP, and 1 μM substrate. After incubation at room temperature for 60 min, the enzyme reaction is stopped by EDTA-containing buffer, which also contains europium-labeled (Eu^3+-Cryptate) anti-phosphotyrosine antibody (Cisbio) and Streptavidin-XL665 (Cisbio). The europium-labeled antibody generates a time-resolved FRET signal with the Stepavidin-XL665, which binds to the biotinylated TK substrate through the streptavidin conjugate when the substrate is phosphorylated. After one hour incubation at room temperature, fluoresence was measured with excitation of 320 nm and dual emission of 615 and 665 nm on an EnVision microplate reader. Signal is expressed in terms of a TR-FRET ratio (665:615).
as §1, §2
For orientation: In TR-FRET formats the signal depends on donor and acceptor labels being close together.

Another series can be described thus: Pharmacokinetics in rat. The series is classed as in vivo, male Sprague Dawley rats. Conditions: for AUC(0-t): read-out: AUC0-t. How it is done:
The pharmacokinetic behavior of a representative disclosed compound, compound 3 (N-(3-(6-((3-morpholinophenyl)amino)-1H-pyrazolo[3,4-d]pyrimidin-4-yl)phenyl)acrylamide), which corresponds to compound 3 in Table I, was also evaluated in rat. A study was conducted using three male Sprague Dawley rats in each group as shown below:
The solution formulations were prepared as follows: (A) intravenous route (“i.v.”): a weighed quantity of 3 (10.45 mg) was transferred into a 10 mL clean glass vial. To this 0.231 mL of ethanol (4.5%) was added, vortexed and sonicated. To this 1.028 mL of propylene glycol (20%) was added, vortexed and sonicated. 1.543 mL of PEG400 (30%) was added, vortexed and sonicated. Finally 2.340 mL of water (45.5%) was added gradually, vortexed and sonicated to make a solution of 2 mg/mL concentration. The final solution was filtered using syringe filter (0.22 μm).; and (B) a weighed quantity of SC-1344 (27.43 mg) was transferred into a 10 mL clean glass vial. To this 0.304 mL of ethanol (4.5%) was added, vortexed and sonicated. To this 1.350 mL of propylene glycol (20%) was added, vortexed and sonicated. 2.024 mL of PEG400 (30%) was added, vortexed and sonicated. Finally 3.070 mL of water (45.5%) was added gradually, vortexed and sonicated to make a solution of 4 mg/mL concentration. The final solution was filtered using syringe filter (0.22 μm).
Bioanalysis was performed using fit-for-purpose LC-MS/MS method for the quantification of 3 in rat plasma samples. The calibration curve (CC) for the method consisted of nine non-zero calibration standards along with a double blank and zero standard samples. Study samples were analyzed along with two sets of quality control samples (6 QC samples; low, medium and high QC samples in triplicate). Briefly, the LC-MS/MS method used the following parameters: a) gradient mobile phase (Pump A: 0.1% Formic acid in water; Pump B: 100% methanol); b) XBridge C8, 50×4.6 mm, 3.5μ (Waters) column; c) 10 μL injection volume; d) 1.00 mL/min flow rate; e) 3.50 min run time; f) 10° C. sample cooler temperature; and g) 40° C. column oven temperature. The sample calibration curve was 1.02-1023 ng/mL, with an internal standard (telmisartan) at 0.2 μg/mL. Briefly, biological samples were prepared as follows: 50 μL of sample was mixed with 150 μL of internal standard, then mixture was vortexed for 5 min at 800 rpm, followed by centrifugation at 4000 rpm for 5 min; 150 μL of the sample supernatant was transferred into a separate tube and diluted with 75 μL of methanol: water (1:1), followed by injection into LC/MS/MS.
Plasma pharmacokinetic parameters were calculated using the non-compartmental analysis tool of Phoenix software (Version 6.3) and were determined from individual animals in each group. The area under the plasma concentration-time curve (AUC0-t and AUCinf), elimination half-life (T1/2), clearance (CL), volume of distribution (Vss) and Mean residence time (MRT) were calculated from intravenous group. The peak plasma concentration (Cmax), time to achieve peak plasma concentration (Tmax), AUC0-t and AUCinf, and absolute oral bioavailability (F) were calculated from the oral group.
The mean plasma concentration-time profiles are shown in FIGS. 10 and 11, i.e. the mean concentration values of the individual values obtained from each rat in the study group at the indicated time points.

Series [2] can be described thus: Microsomal stability, positive control assays. The series is classed as in vitro ADME. The conditions noted are these: microsomes used in the study. On the procedure:
Data were also obtained for the stability of Compound 3 when incubated with a microsomal preparation. Drug metabolism can occur, at least in part, in cellular microsomes, and thus the assay assesses the stability of drug to metabolic modification. The concentration of compound 3 was 1 μM in the assay system and the indicated microsomes were present at 0.5 mg total protein per milliliter. The concentration of intact drug was determined at the indicated timepoints using a LC-MS/MS assay. The enzyme activity of the microsomes used in this study were assessed using a positive control, testosterone.

Where [3] appears, read: male, Sprague Dawley, plasma, IV 5 mg/kg, solution.

Values joined by “and” are separate entries in the source; they are usually repeats but may differ in a detail not shown here. Equal values may be shown once. Read-outs that look alike come from different tables or passages of the source. A value given as a limit tells only on which side of the number the result lay.

T1 sequence (Q06187 whole entry): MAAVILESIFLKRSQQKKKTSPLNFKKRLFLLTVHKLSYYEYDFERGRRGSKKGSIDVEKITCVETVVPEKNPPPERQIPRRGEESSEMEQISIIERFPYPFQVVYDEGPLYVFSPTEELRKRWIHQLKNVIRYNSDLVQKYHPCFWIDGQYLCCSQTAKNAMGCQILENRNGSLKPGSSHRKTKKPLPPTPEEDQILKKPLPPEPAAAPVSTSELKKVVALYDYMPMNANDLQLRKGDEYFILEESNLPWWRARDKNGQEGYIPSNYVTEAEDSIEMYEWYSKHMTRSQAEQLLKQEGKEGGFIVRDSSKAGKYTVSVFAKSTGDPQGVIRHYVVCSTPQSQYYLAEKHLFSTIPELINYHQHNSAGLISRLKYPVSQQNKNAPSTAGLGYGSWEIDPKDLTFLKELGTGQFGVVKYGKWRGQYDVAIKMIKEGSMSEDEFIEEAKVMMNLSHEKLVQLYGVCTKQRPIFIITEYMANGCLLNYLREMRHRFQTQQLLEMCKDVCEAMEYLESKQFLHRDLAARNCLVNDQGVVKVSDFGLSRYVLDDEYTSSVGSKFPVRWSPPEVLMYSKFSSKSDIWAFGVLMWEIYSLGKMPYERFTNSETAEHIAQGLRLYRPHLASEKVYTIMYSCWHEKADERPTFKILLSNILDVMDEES
BTK, sequence (Q06187 whole entry): as above

A word on the IC50: it is the point on the concentration scale where inhibition reaches its midpoint. As for `C=CC(=O)Nc1cccc(-c2nc(Nc3cccc(N4CCOCC4)c3)nc3[nH]cc(Cl)c23)c1` [Compound 7, N-(3-(5-chloro-2-((3-morpholinophenyl)amino)-7H-pyrrolo[2,3-d]pyrimidin-4-yl)phenyl)acrylamide], the IC50 in series [1] came to 96 nM; at BTK, 175 nM.

`C=CC(=O)Nc1cccc(-c2nc(Nc3cccc(N4CCOCC4)c3)nc3[nH]nc(Cl)c23)c1` [Compound 5, N-(3-(3-chloro-6-((3-morpholinophenyl)amino)-1H-pyrazolo[3,4-d]pyrimidin-4-yl)phenyl)acrylamide]: the half-maximal inhibitory concentration (IC50) in series [1] turned out to be 96 nM; at BTK, 175 nM.

`C=CC(=O)Nc1cc(-c2nc(Nc3cccc(N4CCOCC4)c3)nc3[nH]nc(Cl)c23)ccc1Cl` [Compound 6, N-(2-chloro-5-(3-chloro-6-((3-morpholinophenyl)amino)-1H-pyrazolo[3,4-d]pyrimidin-4-yl)phenyl)acrylamide]: the values for the IC50 (in series [1]; at BTK) were at least 100000 nM and over 100000 nM, respectively.

The clearance is the rate of elimination divided by the concentration. Low values mean a low capacity for elimination, high ones a high capacity for elimination. Usually half-life stands for the time in which the quantity being followed falls by half. Higher therefore signals slow loss. What is called bioavailability is dose-corrected exposure relative to a reference, in per cent. By Cmax is commonly meant the maximum level reached in the sampled fluid or tissue. With `C=CC(=O)Nc1cccc(-c2nc(Nc3cccc(N4CCOCC4)c3)nc3[nH]ncc23)c1` [SC-1344, N-(3-(6-((3-morpholinophenyl)amino)-1H-pyrazolo[3,4-d]pyrimidin-4-yl)phenyl)acrylamide], the “Vss relative to total body water normalized to body weight (0.7 L/kg)” value in the series “Pharmacokinetics in rat” (IV 5 mg/kg) was “approximately 11 fold”. Moreover, in “Pharmacokinetics in rat” (setting [3]), the clearance amounted to 79.7 mL/min/kg, the half-life is 2.71 h and the AUC(0-t) was determined as 1060 ng·h/mL. Moreover, the Vd in the series “Pharmacokinetics in rat” (male, Sprague Dawley, plasma, IV 5 mg/kg, solution, read-out: Vss) stood at 7.91 L/kg. In “Pharmacokinetics in rat” (male, Sprague Dawley, plasma, PO 20 mg/kg vs IV 5 mg/kg, AUC0-t and nominal doses used, read-out: F (absolute oral bioavailability)), the bioavailability was determined as 2.44%. Besides, the AUC(0-t) in “Pharmacokinetics in rat” (male, Sprague Dawley, plasma, PO 20 mg/kg, solution) is 104 ng·h/mL. Further, in “Pharmacokinetics in rat” (male, Sprague Dawley, plasma, PO 20 mg/kg, solution, read-out: Cmax), the maximum concentration (Cmax) worked out at 23.1 ng/mL.

On to `C[C@]12CC[C@H]3[C@@H](CCC4=CC(=O)CC[C@@]43C)[C@@H]1CC[C@@H]2O` [testosterone], for which the “Disappearance of positive control in microsomes” value in series [2] is listed as “rapid disappearance”.

Consider `C=CC(=O)Nc1cccc(-c2nc(Nc3cccc(N4CCNCC4)c3)nc3[nH]ncc23)c1` [Compound 9, N-(3-(6-((3-(piperazin-1-yl)phenyl)amino)-1H-pyrazolo[3,4-d]pyrimidin-4-yl)phenyl)acrylamide], for which the concentration for half-maximal inhibition (IC50) on BTK amounted to 14 nM.

On to `C=CC(=O)Nc1cccc(-c2nc(Nc3cccc(N4CCN(C)CC4)c3)nc3[nH]ncc23)c1` [Compound 4, N-(3-(6-((3-(4-methylpiperazin-1-yl)phenyl)amino)-1H-pyrazolo[3,4-d]pyrimidin-4-yl)phenyl)acrylamide], for which the concentration for half-maximal inhibition (IC50) in series [1] was found to be 9 nM; at BTK, 9.1 nM.

As to `C=CC(=O)Nc1cccc(-c2nc(Nc3cccc(N4CCNCC4)c3)ncc2Cl)c1` [Compound 10, N-(3-(5-chloro-2-((3-(piperazin-1-yl)phenyl)amino)pyrimidin-4-yl)phenyl)acrylamide], the IC50 at BTK is 70 nM.

On to `C=CC(=O)Nc1cccc(-c2nc(Nc3cccc(N4CCN(C)CC4)c3)ncc2Cl)c1` [Compound 1, N-(3-(5-chloro-2-((3-(4-methylpiperazin-1-yl)phenyl)amino)pyrimidin-4-yl)phenyl)acrylamide], for which the IC50 in series [1] is 29 nM and 14 nM; at BTK, 14.2 nM.

For the compound `C=CC(=O)Nc1cccc(-c2nc(Nc3cccc(N4CCOCC4)c3)nc3[nH]ccc23)c1` [Compound 8, N-(3-(2-((3-morpholinophenyl)amino)-7H-pyrrolo[2,3-d]pyrimidin-4-yl)phenyl)acrylamide], on BTK, the IC50 is over 10000 nM.

Take `C=CC(=O)Nc1cccc(-c2nc(Nc3cccc(N4CCOCC4)c3)ncc2Cl)c1` [Compound 2, N-(3-(5-chloro-2-((3-morpholinophenyl)amino)pyrimidin-4-yl)phenyl)acrylamide]: the IC50 in series [1] worked out at 70 nM.
